# Inconclusive results are not listed. Calls of active or inactive are those of the source.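 How the source made its calls: active means luminescence falls with dose and the fitted half-maximal concentration is within ten times the top dose in every run; inconclusive means runs disagree, or a flat moderate drop, or a poor fit; inactive means every run inactive, including rises or flat response.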
# Tested on: Vibrio harveyi JMH597 AI-2 quorum sensing luminescence, 9 h
# Test: LuxS/LuxPQ-dependent luminescence inhibition, V. harveyi – dry powder, set 4, dose response (AID 493101)
# Details: not given
row,SMILES,AC50
1,O=C1C=C/C(=C/Br)O1,4.64 µM
2,C=Cn1c(C(=O)O)ccc1-c1ccc(CC)cc1,3.22 µM
3,CCc1ccc(-c2ccc(C(=O)O)n2C)cc1,5.52 µM
4,O=S(=O)(Nc1ccccn1)c1ccc(Oc2ccccc2)cc1,7.34 µM
5,O=S(=O)(Nc1cccnc1)c1ccc(Oc2ccccc2)cc1,0.766 µM
6,Cn1cnc(S(=O)(=O)Nc2ccc(OC(F)(F)F)cc2)c1,8.62 µM

# Tested on: not listed separately
# Test: as above
# Details: Vibrio harveyi JMH597 AI-2 quorum sensing luminescence, 9 h; at 16 µM (top of the series)
row,SMILES,"activity change, negative = inhibition"
1,CC(=O)Nc1ccccc1NS(=O)(=O)c1cn(C)cn1,2.17% (inactive)
2,Cc1ccccc1NS(=O)(=O)c1cn(C)cn1,-1.44% (inactive)
3,CN(C)C(=O)c1ccccc1NS(=O)(=O)c1cn(C)cn1,0.404% (inactive)
4,CCc1ccc(-c2ccc(C(=O)O)n2CC)cc1,2.4% (inactive)
5,Cn1cnc(S(=O)(=O)Nc2ccccc2F)c1,2.07% (inactive)
6,Cn1cnc(S(=O)(=O)Nc2ccccc2Cl)c1,3.87% (inactive)
7,COc1ccccc1NS(=O)(=O)c1cn(C)cn1,-5.36% (inactive)
